Assay [1] deals with full-length human LSD1 (Homo sapiens (Human), UniProt O60341). Kind of assay: In Vitro Enzyme Inhibition Assay—LSD-1 (TR-FRET). The assay is classed as biochemical. As to conditions: H3K4me1-biotin labeled peptide. How it is done:
This assay determines the ability of a test compound to inhibit LSD1 demethylase activity. E. coli expressed full-length human LSD1 (Accession number 060341) was purchased from Active Motif (Cat#31334).
The enzymatic assay of LSD1 activity is based on Time Resolved-Fluorescence Resonance Energy Transfer (TR-FRET) detection. The inhibitory properties of compounds to LSD1 were determined in 384-well plate format under the following reaction conditions: 0.1-0.5 nM LSD1, 50 nM H3K4me1-biotin labeled peptide (Anaspec cat #64355), 2 μM FAD in assay buffer of 50 mM HEPES, pH7.3, 10 mM NaCl, 0.005% Brij35, 0.5 mM TCEP, 0.2 mg/ml BSA. Reaction product was determined quantitatively by TR-FRET after the addition of detection reagent Phycolink Streptavidin-allophycocyanin (Prozyme) and Europium-anti-unmodified histone H3 lysine 4 (H3K4) antibody (PerkinElmer) in the presence of LSD1 inhibitor such as 1.8 mM of Tranylcypromine hydrochloride (2-PCPA) in LANCE detection buffer (PerkinElmer) to final concentration of 12.5 nM and 0.25 nM respectively.
The assay reaction was performed according to the following procedure: 2 μL of the mixture of 150 nM H3K4me1-biotin labeled peptide with 2 μL of 11-point serial diluted test compound in 3% DMSO were added to each well of plate, followed by the addition of 2 μL of 0.3 nM LSD1 and 6 μM of FAD to initiate the reaction. The reaction mixture was then incubated at room temperature for one hour, and terminated by the addition of 6 μL of 1.8 mM 2-PCPA in LANCE detection buffer containing 25 nM Phycolink Streptavidin-allophycocyanin and 0.5 nM Europium-anti-unmodified H3K4 antibody. Enzymatic reaction is terminated within 15 minutes if 0.5 LSD1 enzyme is used in the plate. Plates were read by EnVision Multilabel Reader in TR-FRET mode (excitation at 320 nm, emission at 615 nm and 665 nm) after 1 hour incubation at room temperature. A ratio was calculated (665/615) for each well and fitted to determine inhibition constant (IC50).
The ability of the compounds disclosed herein to inhibit LSD1 activity was quantified and the respective IC50 value was determined. Table 3 provides the IC50 values of various substituted heterocyclic compounds disclosed herein.

In assay [2] the test system is THP-1 (AML) cells. Kind of assay: LSD1 CD11b Cellular Assay (flow cytometry). The assay is classed as cell-based. As to conditions: Homo sapiens, 96 h; CD11b expression in THP-1 cells, 4 days. How it is done: To analyze LSD1 inhibitor efficacy in cells, a CD11b flow cytometry assay was performed. LSD1 inhibition induces CD11b expression in THP-1 (AML) cells which can be measured by flow cytometry. […] LSD1 test compounds were serially diluted in DMSO. The dilutions were added to each well accordingly to a final concentration of 0.2% DMSO. The cells were incubated at 37 degrees Celsius in 5% CO2 for 4 days. 250 μL of each well was transferred to a well in a 96 well round bottom plate. The plate was centrifuged at 1200 rpm at 4 degrees Celsius in a Beckman Coulter Alegra 6KR centrifuge for 5 minutes. The media was removed leaving the cells at the bottom of the wells. The cells were washed in 100 μL cold HBSS (Hank's Balanced Salt Solution) plus 2% BSA (Bovine Serum Albumin) solution and centrifuged at 1200 rpm at 4 degrees Celsius for 5 minutes. The wash was removed. […] The cells were centrifuged and washed two times in 100 μl HBSS plus 2% BSA. After the final spin the cells were resuspended in 100 μL HBSS plus 2% BSA containing 1 ug/mL DAPI (4′,6-diamidino-2-phenylindole). The cells were then analyzed by flow cytometry in a BD FACSAria machine. Cells were analyzed for CD11b expression. The percent of CD11b expressing cells for each inhibitor concentration was used to determine an IC50 curve for each compound analyzed.

pIC50: −log10 of the molar value. A value given as a limit tells only on which side of the number the result lay.

As a reminder, the pIC50 is the IC50 on a negative log10 scale, so that one unit is a factor of ten. Lower therefore signals a high IC50. Consider `COc1ccc(-n2c(-c3ccc(C#N)c(F)c3)nc(N3CCC(N)CC3)cc2=O)cc1F` [Example 30, 4-[4-(4-aminopiperidin-1-yl)-1-(3-fluoro-4-methoxyphenyl)-6-oxopyrimidin-2-yl]-2-fluorobenzonitrile], for which the pIC50 in assay [1] is not below 7.00; in assay [2], 6.00 to 7.00.
Regarding `Cn1ncc2cc(-c3sc(N4CCC(N)CC4)nc3-c3ccc(C#N)cc3)cnc21` [Example 4, 4-[2-(4-aminopiperidin-1-yl)-5-{1-methyl-1H-pyrazolo[3,4-b]pyridin-5-yl}-1,3-thiazol-4-yl]benzonitrile], the negative logarithm of the IC50 (pIC50) in assay [1] is not below 7.00; in assay [2], more than 7.00.
In the same order, the values of `Cn1cnc2cc(-c3sc(N4CCC(N)CC4)nc3-c3ccc(C#N)cc3)ccc21` [Example 8, 4-[2-(4-aminopiperidin-1-yl)-5-(1-methyl-1H-1,3-benzodiazol-5-yl)-1,3-thiazol-4-yl]benzonitrile] are not below 7.00 and more than 7.00.
For `Cn1cnc2cc(-c3sc(C(=O)N4CCC[C@H](N)C4)nc3-c3ccc(C#N)cc3)ccc21` [Example 17, 4-{2-[(3 S)-3-aminopiperidine-1-carbonyl]-5-(1-methyl-1H-1,3-benzodiazol-5-yl)-1,3-thiazol-4-yl}benzonitrile], in that order: not below 7.00 and more than 7.00.
Consider `N#Cc1ccc(-c2nc(N3CC[C@@H]4CNC[C@@H]4CC3)sc2-c2cnn(CC3CC3)c2)cc1` [Example 15, 4-{5-[1-(cyclopropylmethyl)-1H-pyrazol-4-yl]-2-{decahydropyrrolo[3,4-d]azepin-6-yl}-1,3-thiazol-4-yl}benzonitrile], for which the pIC50 in assay [1] is not below 7.00; in assay [2], 6.00 to 7.00.
On to `N#Cc1ccc(-c2nc(C(=O)N3CCC[C@@H](N)C3)sc2-c2cnn(CC(F)(F)F)c2)cc1` [Example 21, 4-{2-[(3R)-3-aminopiperidine-1-carbonyl]-5-[1-(2,2,2-trifluoroethyl)-1H-pyrazol-4-yl]-1,3-thiazol-4-yl}benzonitrile], for which the pIC50 in assay [1] is not below 7.00; in assay [2] it was more than 7.00.
In the case of `Cn1ncc2cc(-c3sc(N4CCC(N)CC4)nc3-c3ccc(C#N)cc3)ccc21` [Example 1, 4-[2-(4-aminopiperidin-1-yl)-5-(1-methyl-1H-indazol-5-yl)-1,3-thiazol-4-yl]benzonitrile], the pIC50 in assay [1] was not below 7.00; in assay [2], more than 7.00.
In the same order, the values of `Cn1ncc2cc(-c3sc(N4CCC5(CCNC5)CC4)nc3-c3ccc(C#N)cc3)ccc21` [Example 5, 4-(2-{2,8-diazaspiro[4.5]decan-8-yl}-5-(1-methyl-1H-indazol-5-yl)-1,3-thiazol-4-yl)benzonitrile] are not below 7.00 and 6.00 to 7.00.
In the same order, the values of `N#Cc1ccc(-c2nc(N3CCC(N)CC3)sc2-c2cnn(CC3CC3)c2)cc1` [Example 14, 4-[2-(4-aminopiperidin-1-yl)-5-[1-(cyclopropylmethyl)-1H-pyrazol-4-yl]-1,3-thiazol-4-yl]benzonitrile] are not below 7.00 and 6.00 to 7.00.
For `N#Cc1ccc(-c2nc(N3CCC4(CCNC4)CC3)cc(=O)n2-c2ccc(C3CC3)cc2)cc1F` [Example 29, 4-[1-(4-cyclopropylphenyl)-4-(2,8-diazaspiro[4.5]decan-8-yl)-6-oxopyrimidin-2-yl]-2-fluorobenzonitrile], in that order: not below 7.00 and more than 7.00.
On to `N#Cc1ccc(-c2nc(N3CCC(N)CC3)cc(=O)n2-c2ccc(C3CC3)cc2)cc1F` [Example 26, 4-[4-(4-Aminopiperidin-1-yl)-1-(4-cyclopropylphenyl)-6-oxopyrimidin-2-yl]-2-fluorobenzonitrile], for which the pIC50 in assay [1] was not below 7.00; in assay [2], more than 7.00.
For `Cn1ncc2cc(-c3sc(N4CC[C@@H]5CNC[C@@H]5CC4)nc3-c3ccc(C#N)cc3)cnc21` [Example 11, cis-4-(2-{decahydropyrrolo[3,4-d]azepin-6-yl}-5-{1-methyl-1H-pyrazolo[3,4-b]pyridin-5-yl}-1,3-thiazol-4-yl)benzonitrile], in that order: not below 7.00 and more than 7.00.
Consider `Cn1cnc2cc(-c3sc(C(=O)N4CCC[C@@H](N)C4)nc3-c3ccc(C#N)cc3)ccc21` [Example 16, 4-{2-[(3R)-3-aminopiperidine-1-carbonyl]-5-(1-methyl-1H-1,3-benzodiazol-5-yl)-1,3-thiazol-4-yl}benzonitrile], for which the pIC50 in assay [1] was not below 7.00; in assay [2], more than 7.00.
Consider `N#Cc1ccc(-c2nc(C(=O)N3CCC[C@@H](N)C3)sc2-c2cnn(CC3CC3)c2)cc1` [Example 22, 4-{2-[(3R)-3-aminopiperidine-1-carbonyl]-5-[1-(cyclopropylmethyl)-1H-pyrazol-4-yl]-1,3-thiazol-4-yl}benzonitrile], for which the pIC50 in assay [1] was not below 7.00; in assay [2] it was 6.00 to 7.00.
For the compound `N#Cc1ccc(-c2nc(N3CCC(N)CC3)cc(=O)n2-c2ccc(C3CC3)c(F)c2)cc1F` [Example 33, 4-[4-(4-aminopiperidin-1-yl)-1-(4-cyclopropyl-3-fluorophenyl)-6-oxopyrimidin-2-yl]-2-fluorobenzonitrile], the pIC50 in assay [1] was not below 7.00; in assay [2] it was more than 7.00.
For `Cn1ncc2cc(-c3sc(N4CCC5CNCC5C4)nc3-c3ccc(C#N)cc3)ccc21` (stereo not drawn) [Example 7], in that order: not below 7.00 and more than 7.00.
Turning to `Cn1cc2cc(-n3c(-c4ccc(C#N)c(F)c4)nc(N4CCC(N)CC4)cc3=O)ccc2n1` [Example 31, 4-[4-(4-aminopiperidin-1-yl)-1-(2-methylindazol-5-yl)-6-oxopyrimidin-2-yl]-2-fluorobenzonitrile], the negative-log IC50 (pIC50) in assay [1] is not below 7.00; in assay [2], 6.00 to 7.00.
For `Cn1cnc2cc(-c3sc(C(=O)N4CCC[C@@H](N)C4)nc3-c3ccc(C#N)cc3)cnc21` [Example 20, 4-{2-[(3R)-3-aminopiperidine-1-carbonyl]-5-{3-methyl-3H-imidazo[4,5-b]pyridin-6-yl}-1,3-thiazol-4-yl}benzonitrile], in that order: not below 7.00 and 6.00 to 7.00.

The record behind these values is patent US10100046B2, “Inhibitors of lysine specific demethylase-1” (Celgene Quanticel Research, Inc., priority 2014, dated 2018).
